The record followed here is patent US20240368168A1, “SARM1 ENZYME ACTIVITY INHIBITOR AND APPLICATION THEREOF” (ARTIVILA BIOPHARMA, priority 2021, published 2024).

The target in test [1] is T1, SARM1 protein in iSARM1 (HEK293) cells (Homo sapiens, UniProt Q6SZW1).
T1 construct: The full-length SARM1 was synthesized into the pUC57 plasmid by WZ Biosciences Inc., and PCR was performed using pUC57-SARM1 as a DNA template
T1 sequence (Q6SZW1 28-724): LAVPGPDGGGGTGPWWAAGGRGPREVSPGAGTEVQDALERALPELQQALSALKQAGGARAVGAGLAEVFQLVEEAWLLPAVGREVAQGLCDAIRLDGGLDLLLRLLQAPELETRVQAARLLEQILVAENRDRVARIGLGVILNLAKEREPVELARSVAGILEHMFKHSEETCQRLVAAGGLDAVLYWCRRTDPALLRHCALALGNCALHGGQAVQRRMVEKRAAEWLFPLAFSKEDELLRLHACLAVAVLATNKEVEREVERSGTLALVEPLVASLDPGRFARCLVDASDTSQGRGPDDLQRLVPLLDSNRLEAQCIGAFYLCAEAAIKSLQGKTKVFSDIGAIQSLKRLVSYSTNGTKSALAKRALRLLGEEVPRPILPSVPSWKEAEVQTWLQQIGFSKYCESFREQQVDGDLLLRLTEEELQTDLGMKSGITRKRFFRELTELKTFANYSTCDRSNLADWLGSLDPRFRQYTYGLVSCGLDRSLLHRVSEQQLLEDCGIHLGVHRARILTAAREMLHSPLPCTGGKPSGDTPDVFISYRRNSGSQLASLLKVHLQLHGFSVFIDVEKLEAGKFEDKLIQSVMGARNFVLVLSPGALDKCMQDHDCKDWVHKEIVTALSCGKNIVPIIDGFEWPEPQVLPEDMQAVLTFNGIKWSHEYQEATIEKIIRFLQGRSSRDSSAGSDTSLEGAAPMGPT
The experiment in a line: Inhibitory activity in inducible SARM1 overexpressing cell line, intracellular cADPR level. In kind it is cell-based. As to conditions: activator CZ-48 100 μM, cADPR content. As to the method:
In this example, the gene sequence of SARM1 was amplified using PCR, and constructed into pInducer20-neo plasmid. pInducer20-SARM1 virus was packaged in a liposome and infected HEK293 to obtain an inducible SARM1-overexpressing cell line, which was labeled as iSARM1 (HEK293). The specific preparation was as follows:
First, a 96-well culture plate was treated with 0.05 mg/ml polylysine for 5 minutes and washed once with PBS. 3×10^4 iSARM1 (HEK293) cells were plated into the 96-well plate and cultured overnight in a 37° C. and 5% incubator. The next day, the cells were added with an inhibitor with a final concentration of 50 μM, incubated in the incubator for 1.5 hours, added with activator CZ-48 with a final concentration of 100 μM, and incubated for 16 hours. Meanwhile, the cells without adding CZ-48 or without adding drug were set as control group. Finally, the intracellular cADPR level was detected to represent the activity of SARM1, and the inhibition rate of SARM1 in cells by 50 μM inhibitor was calculated.
The cADPR measurement was performed as follows. First, the cells were washed once with PBS, and added with 150 μl of pre-cooled 0.6M perchloric acid (PCA) to quickly lyse the cells and precipitate the protein. The PCA supernatant was transferred to a 1.5 ml centrifuge tube. The protein in the culture medium was dissolved again with 100 μl of 1M NaOH. The supernatant was added with 0.5 ml of organic reagent mixture (trioctylamine:chloroform=1:3) to extract PCA from water. After sufficient shaking, the mixture was centrifuged at 12,000 rpm for 10 minutes. The solution was divided into 3 layers: the upper aqueous phase, containing the small molecules of interest; the lower organic phase, in which PCA was dissolved; and a thin protein layer between the upper and lower layers. The upper layer was transferred to a new centrifuge tube, added with 1M Tris-Mg at a ratio of 1:100 (1M Tris (pH 8.0): 1M MgCl2=9:1), added with NADase at a ratio of 1:250, and treated at 37° C. overnight to remove NAD^+ from the mixed solution. After the treatment was completed, the mixed solution was filtered using Millipore's 10 K 96-well filter plate to remove NADase.
The cADPR content in the solution was determined through Cycling analysis method. The specific steps were as follows: 20 μl of the sample to be tested or the cADPR standard was taken and added to a 96-well opaque white plate. Preparation of reaction solution: 9.6 ml of PBS (pH 7.4), 200 μl of ethanol, 150 μl of 1 mg/ml AD, 10 μl of 10 mM FMN, 5 μl of 18 mg/ml Diaphorase, 10 μl of 10 mM Resazurin, and 100 μl of 1M Nam. Half of the reaction solution was divided and added with 0.2 μg/ml cyclase. The reaction solution without adding cyclase was used as control experiment. Each sample was divided into two groups, 3 replicates in each group. The reaction solutions containing or not containing cyclase were added to each group to perform the reaction. The reaction kinetic curve within 30 minutes was recorded (Ex:Em=544/599). The average slope of the reaction was calculated. Conversion was performed according to cADPR standard to obtain the accurate cADPR content. A curve of intracellular cADPR content vs corresponding inhibitor concentration was plotted. The half inhibitory concentration of the inhibitor was calculated.

A further test addresses T2, dN-SARM1 protein (Homo sapiens, UniProt Q6SZW1).
T2 construct: the N-terminal mitochondrial localization signal peptide of SARM1 was removed
T2 sequence (Q6SZW1 28-724): T1 sequence (Q6SZW1 28-724)
The test can be described thus: In vitro biochemical assay for inhibiting SARM1 enzymatic activity (IC50), PC6 fluorescence method. As to conditions: 50 μM NAD, 50 μM PC6, 50 μM NMN activator. Here is the method:
200 μM compound was first added to a solution of 0.05 μg/ml dN-SARM1 in 50 mM Tris-HCl (pH 7.5). Half of the mixture was added to an equal volume of a solution of 0.05 μg/ml dN-SARM1 in 50 mM Tris-HCl (pH 7.5) and mixed. The drug was diluted 6 times in this manner, with the final concentrations being 200, 100, 50, 25, 12.5, 6.25, 3.125 μM, or 200, 50, 12.5, 3.125, 0.78, 0.195, 0.049 μM, respectively. The protein without inhibitors added, being used as control group, was incubated at room temperature for 10 minutes.
50 μM NAD, 50 μM PC6 as substrate and 50 μM NMN as activator were added to the dN-SARM1 protein incubated with the inhibitor and reacted for 30 minutes at room temperature. The concentration of each component was the final concentration in the reaction system.
During the reaction, PC6 fluorescence spectrum dynamics were detected by a microplate reader, wherein the excitation wavelength and emission wavelength for detection were 390 nm and 520 nm, respectively. Finally, the reaction rate was used to express the activity of the protein, and the half inhibitory concentration was calculated. The higher the reaction rate, the stronger the protein activity, and the lower the inhibitory efficiency of the compound.
The dose curve of compounds inhibiting SARM1 enzymatic activity was determined using the above method.

Where a name gives a salt, the structure may show the parent alone.

With `CN(C(=O)OC(C)(C)C)c1ccc2ncc(-c3cccc(N)c3)n2c1` [Compound 2], the concentration for a half-maximal effect (EC50) (as a rule, the concentration that produces a half-maximal response) in test [1] fell in the range of 1000 to 10000 nM. The concentration for half-maximal inhibition (IC50) (in general, the concentration needed to halve the response being measured) at dN-SARM1 protein was below 1000 nM.
In test [1], `CN(C(=O)OC(C)(C)C)c1ccc2ncc(-c3ccc(S(N)(=O)=O)cc3)n2c1` [Compound 6] returned a concentration giving a half-maximal response (EC50) below 1000 nM. At dN-SARM1 protein, this compound had an IC50 of 1000 to 10000 nM.
Taken in the same sequence, the figures for `CN(C(=O)OC(C)(C)C)c1ccc2ncc(-c3cccc(C(N)=O)c3)n2c1` [Compound 7] were 1000 to 10000 nM and 1000 to 10000 nM.
Taken in the same sequence, the figures for `CN(C(=O)OC(C)(C)C)c1ccc2ncc(-c3ccccc3)n2c1` [Compound 8] were 1000 to 10000 nM and 1000 to 10000 nM.
The corresponding values for `NS(=O)(=O)c1cccc(-c2cnc3ccccn23)c1` [Compound 9] are 1000 to 10000 nM and 1000 to 10000 nM.
In test [1], `Cc1ccccc1-c1cnc2ccc(N(C)C(=O)OC(C)(C)C)cn12` [Compound 10] gave an EC50 below 1000 nM. In addition, the IC50 on dN-SARM1 protein was in the range of 1000 to 10000 nM.
`CN(C(=O)OC(C)(C)C)c1ccc2ncc(-c3ccccc3Cl)n2c1` [Compound 11]: the concentration giving a half-maximal response (EC50) in test [1] is below 1000 nM. In addition, the IC50 on dN-SARM1 protein lay in the range of 1000 to 10000 nM.
The corresponding values for `CN(C(=O)OC(C)(C)C)c1ccc2ncc(-c3cccs3)n2c1` [Compound 12] are below 1000 nM and 1000 to 10000 nM.
The corresponding values for `COc1cccc(-c2cnc3ccc(N(C)C(=O)OC(C)(C)C)cn23)c1` [Compound 13] are 1000 to 10000 nM and below 1000 nM.
The corresponding values for `COc1ccc(-c2cnc3ccc(N(C)C(=O)OC(C)(C)C)cn23)cc1` [Compound 14] are 1000 to 10000 nM and 1000 to 10000 nM.
The compound `CN(C(=O)OC(C)(C)C)c1ccc2ncc(-c3cccnc3)n2c1` [Compound 15] had a half-maximal effective concentration (EC50) in test [1] of 1000 to 10000 nM. The compound further yielded an IC50 at dN-SARM1 protein of 1000 to 10000 nM.
Regarding `CN(C(=O)OC(C)(C)C)c1ccc2ncc(-c3ccncc3)n2c1` [Compound 17], the EC50 in test [1] fell in the range of 1000 to 10000 nM. Moreover, the 50% inhibitory concentration (IC50) on dN-SARM1 protein lay in the range of 1000 to 10000 nM.
`COCCOCC(=O)Nc1cccc(-c2cnc3ccc(N(C)C(=O)OC(C)(C)C)cn23)c1` [Compound 47, tert-butyl (3-(3-(2-(2-methoxyethoxy)acetamido)phenyl)imidazo[1,2-a]pyridin-6-yl)(methyl) carbamate] returned an EC50 in test [1] below 1000 nM. In addition, the half-maximal inhibitory concentration (IC50) against dN-SARM1 protein was below 1000 nM.
Compound `CNc1ccc2ncc(-c3ccc(S(N)(=O)=O)cc3)n2c1` [Compound 63, 4-(6-(methylamino)imidazo[1,2-a]pyridin-3-yl)benzenesulfonamide] displayed an EC50 in test [1] of 1000 to 10000 nM. Besides, the half-maximal inhibitory concentration (IC50) against dN-SARM1 protein lay in the range of 1000 to 10000 nM.
Compound `CNc1ccc2ncc(-c3ccccc3)n2c1` [Compound 65, N-methyl-3-phenylimidazo[1,2-a]pyridin-6-amine] gave an EC50 in test [1] of 1000 to 10000 nM. The compound further displayed an IC50 at dN-SARM1 protein below 1000 nM.
Taken in the same sequence, the figures for `CNc1ccc2ncc(-c3ccccc3Cl)n2c1` [Compound 68, 3-(2-chlorophenyl)-N-methylimidazo[1,2-a]pyridin-6-amine] were 1000 to 10000 nM and 1000 to 10000 nM.
The corresponding values for `CNc1ccc2ncc(-c3cccs3)n2c1` [Compound 69] are 1000 to 10000 nM and 1000 to 10000 nM.
The corresponding values for `CNc1ccc2ncc(-c3cccc(OC)c3)n2c1` [Compound 70] are 1000 to 10000 nM and 1000 to 10000 nM.
On to `CN(C(=O)OC(C)(C)C)c1ccc2ncc(C3CCCCC3)n2c1` [Compound 84, tert-butyl (3-cyclohexylimidazo[1,2-a]pyridin-6-yl)(methyl)carbamate], for which the EC50 in test [1] is below 1000 nM. This compound had a half-inhibitory concentration (IC50) against dN-SARM1 protein of 1000 to 10000 nM.
The corresponding values for `c1ccc(-c2cnc3ccc(NC4CCOC4)cn23)cc1` (centres unmarked) [Compound 87, 3-phenyl-N-(tetrahydrofuran-3-yl)imidazo[1,2-a]pyridin-6-amine] are 1000 to 10000 nM and below 1000 nM.
Taken in the same sequence, the figures for `CC(=O)Nc1cccc(-c2cnc3ccc(N(C)C(=O)OC(C)(C)C)cn23)c1` [Compound 96, tert-butyl (3-(3-acetylaminophenyl)imidazo[1,2-a]pyridin-6-yl)(methyl)carbamate] were 1000 to 10000 nM and below 1000 nM.
Taken in the same sequence, the figures for `CN(C(=O)OC(C)(C)C)c1ccc2ncc(-c3cccc(NC(=O)COCCOCCOCC(N)=O)c3)n2c1` [Compound 99, tert-butyl (3-(3-(2-(2-(2-(2-amino-2-oxoethoxy)ethoxy)ethoxy)acetamido)phenyl)imidazolin[1,2-a]pyridin-6-yl)(methyl)carbamate] were 1000 to 10000 nM and 1000 to 10000 nM.
`Cc1ncsc1-c1ccc(CNC(=O)[C@@H]2C[C@@H](O)CN2C(=O)[C@@H](NC(=O)COCCOCC(=O)Nc2cccc(-c3cnc4ccc(N(C)C(=O)OC(C)(C)C)cn34)c2)C(C)(C)C)cc1` [Compound 113] yielded an EC50 in test [1] of 1000 to 10000 nM. Moreover, the half-inhibitory concentration (IC50) against dN-SARM1 protein was 1000 to 10000 nM.
`CNc1ccc2ncc(-c3cccc(NC(=O)COCCOCC(=O)N[C@H](C(=O)N4C[C@H](O)C[C@H]4C(=O)NCc4ccc(-c5scnc5C)cc4)C(C)(C)C)c3)n2c1` [Compound 114, (2S,4R)-1-((S)-3,3-dimethyl-2-(2-(2-(2-((3-(6-(methylamino)imidazo[1,2-a]pyridin-3-yl)phenyl)amino)-2-oxoethoxy)ethoxy)acetamido)butyryl)-4-hydroxy-N-(4-(4-methylthiazol-5-yl)benzyl)pyrrolidin-2-carboxamide hydrochloride] came in with an EC50 in test [1] of 1000 to 10000 nM. The IC50 at dN-SARM1 protein is below 1000 nM.
In test [1], `CN(C(=O)OC(C)(C)C)c1ccc2ncc(-c3cccc(OCCOC4CCOC4)c3)n2c1` (centres unmarked) [Compound 155] had an EC50 below 1000 nM.
Consider `O=C(Nc1cccc(-c2cnc3ccc(NC/C=C/c4ccccc4)cn23)c1)C1CCOCC1` [Compound 215], for which, in test [1], the EC50 was below 1000 nM.
